Assay results published in patent publication US10053485B2, “Cytotoxic agents that preferentially target leukemia inhibitory factor (LIF) for the treatment of malignancies and as new contraceptive agents” (Evestra, Inc., priority 2015, dated 2018).

Tests used:
MCF7 = assay: NCI-60 screen, Breast Cancer panel; format: cell-based; conditions: Homo sapiens, MCF7, 48 h
M14 = assay: NCI-60 screen, Melanoma panel; format: cell-based; conditions: Homo sapiens, M14, 48 h
[1] = test system: T47D (ER+ PR+ Breast Cancer); assay: Short term (72 h) cytotoxicity assay; format: cell-based; conditions: Homo sapiens
NCI-H522 = assay: NCI-60 screen, Non-Small Cell Lung Cancer panel; format: cell-based; conditions: Homo sapiens, NCI-H522, 48 h
[2] = test system: SMAD phosphorylation (TGF-beta); assay: Phosphorylation of SMAD; conditions: through blocking TGF-beta
HS 578T = assay: NCI-60 screen, Breast Cancer panel; format: cell-based; conditions: Homo sapiens, 48 h
HCC-2998 = assay: NCI-60 screen, Colon Cancer panel; format: cell-based; conditions: Homo sapiens, HCC 2998, 48 h
A549/ATCC = assay: NCI-60 screen, Non-Small Cell Lung Cancer panel; format: cell-based; conditions: Homo sapiens, A549, 48 h
[3] = test system: unmodified MCF-7 human breast cancer cells; assay: LIF specificity assay, unmodified cells; format: cell-based; conditions: Homo sapiens, MCF7, cytotoxicity
NCI/ADR-RES = assay: NCI-60 screen, Ovarian Cancer panel; format: cell-based; conditions: Homo sapiens, 48 h
[4] = test system: IGROV1 (Ovarian) Xenograft; assay: Tumor xenograft study, IGROV1; format: in vivo, mice
Procedure: Uniform suspensions of human breast cancer MDA-MB-231 and human ovarian cancer IGROV1 cells (2×10^6) in 100 μL (0.02 carboxymethyl cellulose in phosphate buffered saline) were injected subcutaneously into the right and left flanks of 4- to 5-week-old female athymic nude mice (Charles River Laboratories). After 10 days, when the tumor […] reaches 100 mm^3, the mice were randomly allocated to 3 groups of each containing 6 animals. […] All drug was suspended in PBS followed by sonication (15 seconds with an intermittent interval of 5 seconds) for 1 minute. Tumors were allowed to reach palpability before drug intervention. Tumor size was measured every 3 days using digital Vernier Calipers and tumor volume was calculated using the ellipsoid formula [D×(d2)]/2, where D is the large diameter of the tumor and d represents the small diameter. On day 31, the mice were euthanized and tumors were harvested for protein and gene expression studies. […] FIG. 6B depicts a graph of tumor volume vs. time for the administration of EC300 at 2.5 mg/kg twice weekly in the MDA-MB-231 (TNBC) Xenograft. […] FIG. 7 depicts a graph of tumor volume vs. time for the administration of EC300 at 5 mg/kg 5 days per week in the IGROV1 (Ovarian) Xenograft. […] STAT3 phosphorylation is reduced in tumors that underwent treatment compared to control which is an indication of LIF downstream target.

MALME-3M = assay: NCI-60 screen, Melanoma panel; format: cell-based; conditions: Homo sapiens, 48 h
MOLT-4 = assay: NCI-60 screen, Leukemia panel; format: cell-based; conditions: Homo sapiens, MOLT-4, 48 h
BT-549 = assay: NCI-60 screen, Breast Cancer panel; format: cell-based; conditions: Homo sapiens, BT-549, 48 h
786-0 = assay: NCI-60 screen, Renal Cancer panel; format: cell-based; conditions: Homo sapiens, 786-0, 48 h
[5] = test system: Ishikawa (Endometrial Cancer); assay: Short term (72 h) cytotoxicity assay; format: cell-based; conditions: Homo sapiens
A498 = assay: NCI-60 screen, Renal Cancer panel; format: cell-based; conditions: Homo sapiens, A498, 48 h
EKVX = assay: NCI-60 screen, Non-Small Cell Lung Cancer panel; format: cell-based; conditions: Homo sapiens, 48 h, read-out: GI50 (log10GI50) (converted)
NCI-H332M = assay: NCI-60 screen, Non-Small Cell Lung Cancer panel; format: cell-based; conditions: Homo sapiens, 48 h
[6] = test system: LIF-overexpressing MCF-7 (MCF-7 LIF) human breast cancer cells; assay: LIF specificity assay, LIF-overexpressing cells; format: cell-based
MDA-MB-231 ATCC = assay: NCI-60 screen, Breast Cancer panel; format: cell-based; conditions: Homo sapiens, MDA-MB-231, 48 h
SK-MEL-2 = assay: NCI-60 screen, Melanoma panel; format: cell-based; conditions: Homo sapiens, SK-MEL-2, 48 h
[7] = read-out: GI50 (log10GI50) (converted)
[8] = read-out: LC50 (log10LC50) (converted)

## C#CC(F)(F)[C@]1(O)CCC2C3CCC4=CC(=O)CCC4=C3C(c3ccc(C4CC4)cc3)C[C@@]21C (stereo partly drawn) [EC330, 17α-(1,1-difluoro-2-propyn-1-yl)-17β-hydroxy-11β-[4-p-(cyclopropyl)phenyl]estra-4,9-dien-3-one]
MCF7; [7]
  GI50: 1230 nM
MCF7; [8]
  CC50: > 100000 nM
M14; [7]
  GI50: 2750 nM
M14; [8]
  CC50: > 100000 nM
[1]
  IC50: 80 nM
NCI-H522; [7]
  GI50: < 10 nM
NCI-H522; [8]
  CC50: < 10 nM
[2]
  phosphorylation of SMAD: indirectly diminish the phosphorylation of SMAD
HS 578T; [7]
  GI50: 2290 nM
HS 578T; [8]
  CC50: > 100000 nM
HCC-2998; [7]
  GI50: 2950 nM
HCC-2998; [8]
  CC50: > 100000 nM
A549/ATCC; [7]
  GI50: 2450 nM
A549/ATCC; [8]
  CC50: > 100000 nM
[3]
  IC50: 250 nM
NCI/ADR-RES; [7]
  GI50: 25.7 nM
NCI/ADR-RES; [8]
  CC50: > 100000 nM
[4]; 5 mg/kg (5 days per week), 4 weeks, intraperitoneally
  antitumor activity: potent antitumor activity
[4]; IGR-OV1 xenograft tumors, FIG. 8
  apoptosis in xenograft tumors: induced apoptosis dose dependently
[4]; ovarian cancer model
  tumor growth: significantly reduced
[4]; treated vs. control
  STAT3 phosphorylation in tumors: reduced
MALME-3M; [7]
  GI50: < 10 nM
MALME-3M; [8]
  CC50: 81.3 nM
MOLT-4; [7]
  GI50: 1700 nM
MOLT-4; [8]
  CC50: > 100000 nM
BT-549; [7]
  GI50: 2090 nM
BT-549; [8]
  CC50: > 100000 nM
786-0; [7]
  GI50: < 10 nM
786-0; [8]
  CC50: < 10 nM
[5]
  IC50: 5 nM
A498; [7]
  GI50: 263 nM
A498; [8]
  CC50: 3890 nM
EKVX
  GI50: < 10 nM
NCI-H332M; [7]
  GI50: 3800 nM
NCI-H332M; [8]
  CC50: > 100000 nM
[6]; Homo sapiens, MCF7, read-out: MCF-7 LIF IC50
  IC50: 80 nM
[6]; LIF-overexpressing vs. unmodified MCF-7, in words
  vulnerability of LIF overexpressing cells to cell death: more vulnerable to cell death
MDA-MB-231 ATCC; [7]
  GI50: 550 nM
MDA-MB-231 ATCC; [8]
  CC50: > 100000 nM
SK-MEL-2; [7]
  GI50: 2140 nM
SK-MEL-2; [8]
  CC50: 30200 nM
